Where two headings read alike, the source gives them in different places.
Assays:
[1] = Radical scavenging activity of superoxide; conditions: for EC50: isolated components (Table 4), read-out: SC50 Superoxide
Method: According to a previously reported procedure, the superoxide radical solution was prepared in Tris-HCl buffer (16 mM, pH 8.0) containing 300 µM NBT (50 µL), 120 µM PMS (50 µL), and tested sample solution (50 µL). […] The absorbance at 560 nm was measured using an ELISA reader, and the scavenging activity was calculated by the following equation. Scavenging rate (%) = (Acontrol − Asample)/Acontrol × 100% where Acontrol was the absorbance of the control and Asample was that of the tested sample.

[2] = Radical scavenging activity of ABTS; conditions: for EC50: isolated components (Table 4), read-out: SC50 ABTS
Method: According to the method reported in [49], ABTS solution (28 mM) was mixed with potassium permanganate solution (9.6 mM) in an equal ratio (v/v = 1:1) and allowed to react at room temperature in the dark for 16 h to generate the ABTS radical solution. The ABTS radical solution was then diluted with EtOH until the absorbance reached 0.70 ± 0.02 at 740 nm. The tested samples were subsequently diluted to the desired concentrations with EtOH. In a 96-well plate, the ABTS radical solution (190 μL) was mixed with the sample solution (10 μL) and was allowed to react at room temperature for 6 min in the dark. The absorbance was then measured at 740 nm using an ELISA reader. The scavenging activity was calculated using the following equation. Scavenging rate (%) = (Acontrol − Asample)/Acontrol × 100% where Acontrol was the absorbance of the control and Asample was that of the tested sample.

[3] = Radical scavenging activity of DPPH; conditions: for EC50: isolated components (Table 4), read-out: SC50 DPPH
Method: According to the method reported in [48], a DPPH radical solution (400 μM) was prepared in EtOH. The tested samples were diluted to the desired concentrations with EtOH. In a 96-well plate, diluted tested sample solution (100 μL) was mixed with 100 μL of the DPPH radical solution (200 μM). The mixture was allowed to react at room temperature for 30 min in the dark. After the reaction, the absorbance at 520 nm was measured using an ELISA reader (TECAN Sunrise, Männedorf, Schweiz). The scavenging activity was calculated using the following equation. Scavenging rate (%) = (Acontrol − Asample)/Acontrol × 100% where Acontrol was the absorbance of the control and Asample was that of the tested sample.

[4] = system: NO production of LPS-induced RAW264.7 cells; experiment: LPS-induced NO inhibition assay (Griess); format: cell-based, Murine; conditions: Mus musculus, read-out: NO inhibition IC50
Method: LPS-induced NO production of RAW264.7 cells was determined by Griess assay. The 100 μL quantity of cells was seeded in 96-well plates at an amount of 5 × 10^4 cells/well and incubated for 24 h. The cells were then treated with 100 ng/mL LPS with vehicle or different concentrations of the tested sample for 24 h. […] The absorbance was measured at 540 nm to calculate the NO inhibition. Sodium nitrite was used to generate a standard curve.

[5] = Ferric reducing antioxidant power (FRAP)
Method: According to the previously published methods, acetate buffer (pH 3.6), FeCl3 solution (20 mM), and 10 m TPTZ solution (prepared in 40 mM HCl) were mixed in a ratio of 10:1:1 to generate the FRAP working solution. Then, the working solution was warmed to 37 °C before being used. The diluted sample, blank, or standard solution (100 µL) was mixed with the warm-up working solution (900 µL) and incubated for 40 min in a dry bath at 37 °C. The absorbance at 593 nm was measured using an ELISA reader. The standard curve was linear from 0 to 100 mM Trolox, and the data were expressed as mM TE/g dry weight.

α-glucosidase = target: T1, α-glucosidase (Saccharomyces cerevisiae, UniProt P53341); experiment: Enzyme inhibition assay of α-glucosidase; format: biochemical, S. cerevisiae
T1 construct: purchased Sigma-Aldrich
T1 sequence (P53341 whole entry): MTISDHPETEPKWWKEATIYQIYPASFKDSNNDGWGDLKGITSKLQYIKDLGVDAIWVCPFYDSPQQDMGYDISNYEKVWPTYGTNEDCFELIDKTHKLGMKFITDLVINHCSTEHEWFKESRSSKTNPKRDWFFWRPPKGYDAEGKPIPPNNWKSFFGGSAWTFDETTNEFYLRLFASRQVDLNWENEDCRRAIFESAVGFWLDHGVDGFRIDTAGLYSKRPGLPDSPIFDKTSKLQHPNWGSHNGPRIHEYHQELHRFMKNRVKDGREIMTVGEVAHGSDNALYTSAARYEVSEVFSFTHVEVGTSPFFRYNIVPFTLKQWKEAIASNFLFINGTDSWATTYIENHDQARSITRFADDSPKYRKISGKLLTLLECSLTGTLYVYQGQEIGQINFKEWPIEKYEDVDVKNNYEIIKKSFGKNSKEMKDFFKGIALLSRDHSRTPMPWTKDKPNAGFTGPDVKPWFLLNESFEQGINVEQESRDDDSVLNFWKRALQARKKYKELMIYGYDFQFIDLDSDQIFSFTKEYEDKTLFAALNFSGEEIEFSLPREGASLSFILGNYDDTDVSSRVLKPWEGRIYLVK
Method: The inhibitory activity of α-glucosidase was determined based on the previously reported method. The α-glucosidase solution was prepared with sodium phosphate buffer (pH 6.8, 0.1 M) and diluted to 1 U/mL. Subsequently, the tested sample solution (100 µL), diluted α-glucosidase solution (20 µL), and 0.53 mM p-NPG (380 µL) were mixed and incubated at 37 °C for 40 min. […] The activity was calculated by the following equation. α-Glucosidase inhibition (%) = (Acontrol − Asample)/Acontrol × 100% where Asample and Acontrol represent the absorbance values of the tested sample and control, respectively.

[6] = target: T2, acetylcholinesterase (AChE) (Electrophorus electricus, UniProt O42275); experiment: biochemical
T2 construct: purchased Sigma-Aldrich
T2 sequence (O42275 24-633): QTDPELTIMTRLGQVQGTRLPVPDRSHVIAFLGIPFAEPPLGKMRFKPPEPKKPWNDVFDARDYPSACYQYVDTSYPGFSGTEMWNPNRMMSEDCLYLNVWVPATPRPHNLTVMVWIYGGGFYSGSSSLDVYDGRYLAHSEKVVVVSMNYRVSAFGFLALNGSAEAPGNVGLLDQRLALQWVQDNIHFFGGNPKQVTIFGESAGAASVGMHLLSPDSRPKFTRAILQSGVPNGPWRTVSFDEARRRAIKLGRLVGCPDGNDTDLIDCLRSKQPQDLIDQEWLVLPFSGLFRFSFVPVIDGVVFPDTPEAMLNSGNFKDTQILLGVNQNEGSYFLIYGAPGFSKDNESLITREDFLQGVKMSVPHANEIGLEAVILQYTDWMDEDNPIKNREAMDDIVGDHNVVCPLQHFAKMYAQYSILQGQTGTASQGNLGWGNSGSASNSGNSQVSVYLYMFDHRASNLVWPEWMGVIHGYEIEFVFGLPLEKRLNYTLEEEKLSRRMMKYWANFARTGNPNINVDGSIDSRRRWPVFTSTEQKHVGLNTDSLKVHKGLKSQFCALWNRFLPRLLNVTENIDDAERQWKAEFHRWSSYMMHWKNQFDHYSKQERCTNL
Method: The AChE inhibition was carried out based on the previous method. The sodium phosphate buffer (pH 8.0, 0.1 M, 140 μL), DTNB (10 μL), tested sample (20 μL), and AChE solution (15 μL) were mixed in a 96-well plate. After incubating at room temperature for 10 min, the absorbance was measured at 405 nm. The inhibitory effect was calculated by the following equation. Acetylcholinesterase inhibition (%) = (Acontrol − Asample)/Acontrol × 100% where Asample and Acontrol represent the absorbance values of the tested sample and control, respectively.

[7] = system: iNOS expression in LPS-stimulated RAW264.7 cells; experiment: Western blot analysis of iNOS expression; format: cell-based, Murine; conditions: compared to the LPS group (100 ng/mL LPS)
[8] = isolated components (Table 4), mM Trolox equivalents per g
[9] = solvent extracts, concentration causing 50% free radical scavenging
[10] = 100 ng/mL LPS, 24 h, RAW264.7 cells

SMILES	EC50 [1] [µM]	EC50 [2] [µM]	EC50 [3] [µM]	TE FRAP [5, 8]	IC50 [4, 10] [µM]	IC50 ([6]; isolated components (Table 5)) [µM]	also measured
CC1(C)CC[C@]2(C(=O)O)CC[C@]3(C)C(=CC[C@@H]4[C@@]5(C)CC[C@H](O)C(C)(C)[C@@H]5CC[C@]43C)[C@@H]2C1 [Oleanolic acid (1), oleanolic acid]	> 400	> 400	> 400	<1 mM/g			IC50 ([4]; RAW264.7, 24 h): > 50 µM
Cc1cc(C(C)(C)C)c(O)c(C(C)(C)C)c1 [BHT, reference compound]		25.87 ± 0.01	881 ± 70.4	3082.65 ± 213.69 ^B mM/g			SC50 ABTS [2, 9]: 29.95± 1.04 ^A μg/mL; SC50 DPPH [3, 9]: 230.05 ± 25.40 ^AB μg/mL; TE FRAP ([5]; solvent extracts (Table 2), mM Trolox equivalents per gram): 3370.27 ± 256.53 ^D mM/g
CC1CCC2(C(=O)O)CCC3(C)C(=CCC4C5(C)CC(O)C(O)C(C)(C)C5CCC43C)C2C1(C)O (stereo not shown) [Tormentic acid (4), tormentic acid]	> 400	> 400	> 400	<1 mM/g	> 50	281 ± 8.55	IC50 (α-glucosidase): 320 ± 26.1 µM
C[C@H]1[C@H](C)CC[C@]2(C(=O)O)CC[C@]3(C)C(=CC[C@@H]4[C@@]5(C)C[C@@H](O)[C@H](O)C(C)(C)[C@@H]5CC[C@]43C)[C@H]12 [Corosolic acid (3), corosolic acid]	> 400	> 400	> 400	<1 mM/g		283 ± 17	IC50 (α-glucosidase; isolated components (Table 5), read-out: IC50 α-Glucosidase): 13.8 ± 2.11 µM
C[C@H]1[C@H](C)CC[C@]2(C(=O)O)CC[C@]3(C)C(=CC[C@@H]4[C@@]5(C)CC[C@H](O)C(C)(C)[C@@H]5CC[C@]43C)[C@H]12 [Ursolic acid (2), ursolic acid]					20.2 ± 1.46	311 ± 7.31	Inhibition of iNOS expression ([7]; 10 μM): 26.7%; Inhibition of iNOS expression ([7]; 20 μM): 68.1%
C[C@@H]1O[C@@H](OC[C@H]2O[C@@H](Oc3c(-c4ccc(O)c(O)c4)oc4cc(O)cc(O)c4c3=O)[C@H](O)[C@@H](O)[C@@H]2O)[C@H](O)[C@H](O)[C@H]1O [Rutin (6), rutin]	6.69 ± 0.25	20 ± 0.3	66.3 ± 1.68	1609.10 ± 25.67 ^A mM/g		452 ± 12.9	IC50 ([4]; RAW264.7, 24 h): 29.5 ± 1.19 µM
Oc1cc(O)c2c(c1)O[C@H](c1ccc(O)c(O)c1)[C@H](O)C2 [Epicatechin (5), epicatechin]	210 ± 9.46	7.83 ± 0.34	56.9 ± 0.91	1694.43 ± 21.45 ^A mM/g	> 50	405 ± 26.3	IC50 (α-glucosidase): > 800 µM
O=C(/C=C/c1ccc(O)c(O)c1)O[C@@H]1C[C@](O)(C(=O)O)C[C@@H](O)[C@H]1O [Chlorogenic acid, chlorogenic acid, reference compound]						320 ± 4.13	IC50 ([6]; solvent extracts (Table 3)): 386 µM
O=c1c(O)c(-c2ccc(O)c(O)c2)oc2cc(O)cc(O)c12 [Quercetin, quercetin, reference compound]					17.1 ± 1.63		
O=c1cc(-c2ccc(O)c(O)c2)oc2cc(O[C@@H]3O[C@H](CO)[C@@H](O)[C@H](O)[C@H]3O)cc(O)c12 [Cynaroside, cynaroside, reference compound]	38.3 ± 0.69						SC50 Superoxide [1, 9]: 13.41 ± 2.56 ^A μg/mL
